Patent publication US20210380547A1, “UREA DERIVATIVES FOR TREATING AND/OR PREVENTING CANCER” (CENTRE NATIONAL DE LA RECHERCHE SCIENTIFIQUE, priority 2018, published 2021)

Tests used:
DAOY and HD-MB03 cells = assay: Proliferation test, medulloblastoma cells; format: cell-based; settings: 1 μM, cell counts days 1 to 8, vs DMSO
Protocol: FIG. 7: Inhibition of proliferation of medulloblastoma cells by compound #1. Cells were treated or not with 1 μM compound #1 for the indicated days. Cells were counted at the indicated days. * p<0.05; ** p<0.01; *** p<0.001.
1500 DAOY and HD-MB03 cells were seeded in a 6-well plate with or without treatment (1 μM of compound #1 or DMSO as control “CONT”), at 37° C. in a 5% CO2 incubator. Cells were dissociated using trypsone 1X-EDTA (Gibco® Life Technologies) and were counted with Coulter Beckman® counter (Villepinte) at days 1, 4, 6, 7, and 8. Each assay was performed in triplicate.

CXCR2 = biological target: T1, CXCR2 (Homo sapiens, UniProt P25025); assay: CXCR2 membrane level by flow cytometry after CXCL8 stimulation in HuVEC; format: cell-based; settings: 2.5 μM, CXCL8 25 ng/ml 1 h
T1 construct: endogenous in cells; host or cells: HuVEC (healthy endothelial cells)
Protocol: A: HuVEC were stimulated with 25 ng/ml CXCL8 during 1 h. Membrane-associated CXCR2 protein levels were quantified by flow cytometry;
CXCR2 measurement: After stimulation, cells were washed with PBS and were stained with the CXCR2-PE antibody (Miltenyi) for 30 min at room temperature. Fluorescence was measured by using the FL2 (PE) channels of a fluorescence-activated cell sorter apparatus (Calibur cytometer).
Since CXCR2 is internalized in endothelial cells when activated by CXCL-8, the effect of compound #1 has been investigated on CXCR2 recycling on HuVEC cells.

MolM13 = assay: XTT cell viability assay, MolM13; format: cell-based, human; settings: Homo sapiens, MOLM-13; XTT assay (48 h); standard deviation of 10%; read-out: EC50 (μM) AML MolM13
Protocol: (§1) Fifty microliters of sodium 3′-[1-phenylaminocarbonyl)-3,4-tetrazolium]-bis(4-methoxy-6-nitro) benzene sulfonic acid hydrate (XTT) reagent was added to each well. The assay is based on the cleavage of the yellow tetrazolium salt XTT to form an orange formazan dye by metabolically active cells. The absorbance of the formazan product, reflecting cell viability, was measured at 490 nm. Each assay was performed in quadruplicate.
(§2) Compounds #1-#14 have been assayed as potential anti-proliferative agents against a panel of human breast head and neck, and kidney tumor cells and hematological malignancies, selected on the basis of their aggressiveness (e.g. incurable triple-negative breast cancer cells: MDA-MB-231; kidney ccRCC cells: RCC4, A498 and 786-O and 786R; head and neck cancer cells: CAL33, CAL33RR, CAL27, and CAL27RR; acute myeloid cell lines: OCI-AML2, OCI-AML3, MolM13, and MolM14; myelodysplastic cell line: SM1; and chronic myeloid cell line: CML). All these cell lines share as common denominator the expression of CXCR1 and CXCR2. The EC50 values have been measured by a XTT colorimetric assay, and compared to those of SB-225002, used as a reference; the results are listed in Table 1.

caspase-3 activity = assay: Caspase-3 activity assay; format: cell-based, human; settings: 2.5 μM, 48 hr, 786-O and 786-R
Protocol: F: Cells were treated with 2.5 and 5 μM compound #1, with 2.5 μM sunitinib for 48 hr. Cells were lysed in caspase buffer and caspase-3 activity was evaluated using 0.2 mM Ac-DEVD-AMC as substrates. Results expressed as arbitrary units (A.U.) and are means±Standard deviation of 3 independent experiments;
Caspase 3 activity was assessed in quadruplicates using z-DEVD-AMC as substrate and fluorescence were assessed.

MDA-MB-231 = assay: XTT cell viability assay, MDA-MB-231; format: cell-based; settings: Homo sapiens, XTT assay (48 h), standard deviation of 10%, read-out: EC50 (μM) Breast MDA-MB-231
Protocol: as §1, §2

786-O and 786-R cells = assay: FACS analysis of death markers, sunitinib-sensitive and -resistant cells; format: cell-based, human; settings: 2.5 μM, 48 h, 786 and 786-R
Protocol: C: 786 and 786-R cells were treated with 2.5 μM compound #1 for 48 h. Cells were stained with the PI/annexin-V-fluo staining kit according to the manufacturer's indications. Histograms show both annexin-V^+/PI^− cells (blue bars) and annexin-V^+/PI^+ cells (red bars);
Apoptosis analysis: After stimulation, cells were washed with ice-cold PBS and were stained with the annexin-V-fluos staining kit (Roche, Meylan, France) according to the manufacturer's procedure. Fluorescence was measured by using the FL2 (AV) and FL3 (propidium iodide, PI) channels of a fluorescence-activated cell sorter apparatus (Calibur cytometer).

[1] = tested on: primary normal kidney cells (15S); assay: XTT cell viability, primary normal kidney cells; format: cell-based, human; settings: up to 5 μM, XTT 48 h
Protocol: A: Primary RCC cells (TF and CC) and normal renal cells (15S) were treated with compound #1 (1 to 5 μM) for 48 h. Cell viability was measured by XTT assays;
as §1
The biological effects of compound #1 on primary RCC tumors cells and normal renal cells harvested from patients suffering from kidney cancer have been explored (FIG. 4).

T1 sequence (P25025 whole entry): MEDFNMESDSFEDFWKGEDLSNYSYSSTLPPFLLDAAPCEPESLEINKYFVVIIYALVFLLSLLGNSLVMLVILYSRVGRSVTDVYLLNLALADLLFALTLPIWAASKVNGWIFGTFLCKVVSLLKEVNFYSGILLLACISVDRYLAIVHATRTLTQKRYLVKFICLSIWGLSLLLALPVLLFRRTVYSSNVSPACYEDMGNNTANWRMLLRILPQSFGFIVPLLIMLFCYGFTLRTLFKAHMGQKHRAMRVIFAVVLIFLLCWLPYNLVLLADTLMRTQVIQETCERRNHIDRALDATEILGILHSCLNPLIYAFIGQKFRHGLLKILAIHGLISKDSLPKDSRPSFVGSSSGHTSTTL

Structure (SMILES): O=C(Nc1cccc(Cl)c1)Nc1nc2ccc([N+](=O)[O-])cc2s1 [Compound #1, 1-(3-chlorophenyl)-3-(6-nitrobenzo[d]thiazol-2-yl)urea]
- proliferation of DAOY and HD-MB03 cells (DAOY and HD-MB03 cells): significatively reduces the proliferation
- CXCL-8-dependent internalization of CXCR2 (CXCR2): prevents the CXCL-8-dependent internalization of CXCR2
- EC50 (MolM13): 7 µM
- caspase-3 activity (caspase-3 activity): significantly strengthened
- EC50 (MDA-MB-231): 2.5 µM
- death markers (annexin-V/PI) in sensitive and resistant cells (786-O and 786-R cells): kills in a similar way sensitive and resistant
- effect on primary normal kidney cells (15S) [1]: no effect
